Assay: In vitro enzyme assay to detect hydrolysis of chlorophenol red-beta-D-[…] directly proportional to the number of Toxoplasma stably expressing beta-galactosidase
Type: functional, organism-based, Toxoplasma gondii
Details: for IC50: Toxoplasma gondii

SMILES	pIC50	IC50 [µM]
O=C(NCCC1=CCCCC1)c1n[nH]c2c1CCCC2	5.49	1.7
Cc1nnc(SCCNC(=O)CC2C=CS(=O)(=O)C2)s1 (stereo not given)	–	> 50.1
Cc1ccc(CNC(=O)C2CCCCC(=O)N2)o1 (stereo not given)	–	> 50.1
Cn1cccc1C(=O)N1C[C@@H](OCc2ccncc2)[C@@H]2OCCC[C@@H]21	–	> 50.1
NC1CN(S(=O)(=O)c2ccc3c(c2)OCCO3)C1	–	> 50.1
Cc1cc(C(=O)Nc2cnn(CC(F)(F)F)c2)nc(N2CCOCC2)n1	–	> 50.1
CC(C)S(=O)(=O)N1CCN(C(=O)c2cnn(C)c2Cl)CC1	–	> 50.1
CSCC(CCO)NC(=O)c1cc(F)ccc1O (stereo not given)	–	> 50.1
CCN(CCNS(=O)(=O)N1CCOCC1)C(=O)OC(C)(C)C	–	> 50.1
Cc1nnc2n1N=C(c1ccccc1)CS2	–	> 50.1
Nc1c[nH]nc1C(=O)NCc1cccc(Cl)c1	–	> 50.1
Cc1nnc(NCc2cccc(OCC3CCCO3)c2)c(C#N)c1C (stereo not given)	–	> 50.1
Cc1cccc(NC(=O)[C@@H]2CCCN2)n1	–	> 50.1
O=C(C[C@@H]1COC[C@H]2CN(Cc3ccncc3)C[C@@H]12)N1CCCC1	–	> 50.1
CC(=O)Nc1ncc(S(=O)(=O)Nc2ccc(C)cc2)s1	–	> 50.1
CC(C)c1cc(CN(C)C(=O)C(C)N2CCc3ccccc3C2)no1 (stereo not given)	–	> 50.1
CCN1CCCC1CNCC(=O)N(C)C (stereo not given)	–	> 50.1
CCc1cccc(OCC(=O)N2CCCC(n3cncn3)C2)c1 (stereo not given)	–	28.2
CC1CCC(NCCO)CC1 (stereo not given)	–	> 50.1
Cc1cc(C)n(CC2CCNCC2)n1	–	> 50.1
NCCN1CCC(C(N)=O)CC1	–	> 50.1
Cc1ccc(C(=O)NCCCNCCCN(C)C)cn1	–	> 50.1
O=C([C@@H]1CCO[C@@H]2CCN(Cc3ccc(F)cc3)C[C@H]21)N1CCCCO1	–	> 50.1
CC(C)N1CCCN(c2nc(-c3cccnc3)nc3c2cnn3C)CC1	–	5.84
O=C(c1ccc(-c2ccc(O)nc2)s1)N1CCCCC1	–	> 50.1
CC(=O)Nc1ccc(CN2CCCOC(C)C2)cc1 (stereo not given)	–	> 50.1

SMILES	pIC50	IC50 [µM]
CSCCC1c2nc[nH]c2CCN1Cc1cc(Cl)ccc1O (stereo not given)	–	12.3
Cn1cc(CN2C[C@@H]3COC[C@H](C(=O)Nc4cccnc4)[C@@H]3C2)cn1	–	> 50.1
Cc1nc2c(c(NCc3ccc(N)nc3)n1)CCCC2	–	> 50.1
O=C(N1CCOCC1)[C@@]12CCO[C@@H]1CCN(C1CCOCC1)C2	–	> 50.1
COc1cc2cc(C(=O)NCC(=O)O)n(C)c2c(OC)c1OC	–	> 50.1
N#Cc1ccc(C2NC(=O)c3cccnc3N2)cc1 (stereo not given)	–	> 50.1
OC1(CNCCOCc2ccc(Cl)cc2)CCCNC1 (stereo not given)	–	> 50.1
Cc1ncc(C(=O)N2C[C@@H]3CCCN[C@@H]3C2)c(C)n1	–	> 50.1
NC1CCN(C(=O)Nc2ccccc2)C1 (stereo not given)	–	> 50.1
CNc1cc(-c2cccc(OC)c2)[nH]n1	–	> 50.1
COc1c(N)c(C)nn1C	–	> 50.1
CC(C)NC(=O)Nc1nc2c(s1)CN(C(=O)NCc1cccs1)CC2	4.581	> 50.1
Cc1nccn1CCNc1cc(C2CC(O)C2)ncn1 (stereo not given)	–	> 50.1
NC(=O)N1CCCCCC1C1CCNCC1 (stereo not given)	–	> 50.1
Cc1oc(-c2ccoc2)nc1CN1CCC[C@H]1CO	–	4.96
CCC(CC)C(O)CNC(=O)NCC1CC1 (stereo not given)	–	> 50.1
NC1CCN(Cc2ccccc2)C1=O (stereo not given)	–	> 50.1
COC(=O)c1ccc2c(c1)CCCN2S(=O)(=O)c1cn(C)c(C)n1	–	7.21
Cc1c(-c2cc(C(F)(F)F)nc(N3CCC(N)CC3)n2)cnn1C	5.176	4.18
NC1CCN(CC(F)F)CC1	–	> 50.1
CCOCC(=O)N1CCCn2ccnc2C1C(C)C (stereo not given)	–	> 50.1
CS(=O)(=O)Nc1nn(Cc2ccc(F)cc2)cc1Br	–	> 50.1
COc1ccc(-c2cncc(N)c2)cc1CO	–	> 50.1
Cn1cc(CN)c(C(F)(F)F)n1	–	> 50.1
Cc1c(S(=O)(=O)NC2CC2)cc2c(C)cc(=O)n3c2c1CCC3	–	48.5
COC[C@@H]1CCC[C@@]12CN(Cc1ccc(C)s1)CCO2	–	> 50.1

SMILES	pIC50	IC50 [µM]
c1nc(N2CCOCC2)nc2c1COCC21CCN(CC2CC2)C1 (stereo not given)	< 4.3	44
OC1(Cc2ccccc2F)CCNC1 (stereo not given)	–	> 50.1
Cn1ccnc1CN1CCC(c2ccnc(-c3cccc(O)c3)c2)C1 (stereo not given)	–	37.9
CCn1c(SCC(N)=O)nnc1C(C)NC(=O)c1ccc(Cl)cc1 (stereo not given)	–	> 50.1
CCN1CC2(CC1=O)CN(Cc1ccoc1)CCN(C(=O)C(C)C)C2 (stereo not given)	–	> 50.1
CC(C)(C)c1ccc(-n2ncc3c2CCCC3N)cc1 (stereo not given)	–	16.4
CCC(=O)c1cccc(OC)n1	–	> 50.1
CN1CCC(NCC(O)c2cccc(OCc3ccccc3)c2)CC1 (stereo not given)	–	7.98
CCCc1nc(NCCOC)c2c(n1)c(C)nn2CC	–	> 50.1
Cc1ccc(NC(=O)CCCNC(=O)C2CC2)cc1	–	> 50.1
COc1ccc(C(=O)N(CCO)Cc2ccccc2)c(OC)n1	< 4.3	29.2
CCC1=NC(SCC(=O)c2ccc(OC)cc2)c2cc(CC)sc2N1 (stereo not given)	–	37.7
O=C(Nc1ccncc1)NC1CCN(c2ccccc2OC(F)F)C1 (stereo not given)	–	1.87
O=C(N1CCCC1)N1C[C@H]2CCC[C@@]2(COCc2ccccn2)C1	–	> 50.1
CN1CCN(Cc2c(-c3ccco3)[nH]c3ncccc23)CC1	–	> 50.1
CC(C)CCC(=O)N1CCC(C)(CO)C1 (stereo not given)	–	> 50.1
CC(C)c1ocnc1C(=O)Nc1cccc(Cn2ccccc2=O)c1	–	> 50.1
CCC(=O)NC1CCCc2nc(N(C)C)ncc21 (stereo not given)	–	> 50.1
CC(=O)N1CC[C@@]2(C(=O)Nc3ccccc3)CCN(S(C)(=O)=O)CC[C@@H]12	–	> 50.1
CCN1CCc2nc(NC(=O)c3ccncc3)sc2C1	–	> 50.1
CC(C)C(O)CCNS(=O)(=O)c1ccccc1 (stereo not given)	–	> 50.1
Cn1ncc(C(=O)N2CCN(C(=O)c3ccco3)CC2)c1Cl	–	> 50.1
CS(=O)(=O)N1CCOCC2(CCN(c3ccccn3)C2)C1 (stereo not given)	–	> 50.1
Cc1cc(=O)n2c3c(cc(S(=O)(=O)NC4CC4)cc13)CCC2	–	> 50.1
Nc1nc2c(c(NCc3nccs3)n1)CCN(CC1CCCC1)CC2	–	7.85
Cc1cc(C(=O)Nc2cccc(C[S+](C)[O-])c2)on1 (stereo not given)	–	> 50.1

SMILES	pIC50	IC50 [µM]
NCc1ccnc(N2CCCC2)n1	–	> 50.1
CC(C)(C(=O)N1CCC(N)CC1)c1cccc(F)c1	–	> 50.1
CCOCCCNc1cc(C)nn2cnnc12	–	> 50.1
CN(C)[C@H]1CCCCN(C(=O)Cn2cc(Cl)cn2)C1	–	> 50.1
Cn1nnc2c1C(COCC1CC1)CN(C(=O)Cc1cccs1)C2 (stereo not given)	4.541	30.9
COc1ccccc1N1CCCC(N)C1 (stereo not given)	–	> 50.1
O=C(CN1CCc2sccc2C1)Nc1ccnc2ccnn12	5.251	2.81
CCC(C)(CC(=O)OC)NCc1cc(C)on1 (stereo not given)	–	> 50.1
COC[C@H]1CCC[C@]12CN(Cc1cccc(C)n1)CCO2	4.382	> 50.1
CC1CCN(CCNC(=O)Nc2ncnn2C)CC1	–	> 50.1
OCCNc1nc2ccccc2s1	–	> 50.1
Cc1cc(NCCO)nc(N2CCC(Cc3ccccc3)CC2)c1C#N	–	10.7
CC(C)=CCN1CCOC(Cn2nc(C)cc2C)C1 (stereo not given)	–	> 50.1
Cc1cc(C(=O)NCCc2noc(C3CC3)n2)nn1C	–	> 50.1
O=C(CN1CCCc2cc(F)cc(F)c21)Nc1ccc(Br)cn1	–	30.4
c1cc(-c2nn3c(CN4CCOCC4)nnc3s2)ccn1	< 4.3	44.7
O=C(CN1CCN(C(=O)c2ccco2)CC1)NC1CC1	–	> 50.1
CC(Cc1ccco1)NS(=O)(=O)N1CCOCC1 (stereo not given)	–	> 50.1
CSCC(=O)NC(C1CCNCC1)[C@H]1C[C@@H](O)C1 (stereo not given in full)	–	> 50.1
CC(C)n1cc(S(=O)(=O)N2CCCCCC2)cn1	–	> 50.1
COc1cc(Br)c(CN)cc1OC	–	> 50.1
Cc1ncc(CN2CCOC(c3ccc(-c4ccccc4F)cn3)C2)s1 (stereo not given)	–	9.61
CC(NC(=O)c1ccc(Cl)cc1)c1nnc(SCC(=O)O)n1C (stereo not given)	–	29.3
CC(C)n1ccc(CN2C(=O)CC(C)(C)C2=O)n1	–	> 50.1
Cc1cnc(NC(=O)c2cccc(CN(C)Cc3ncccc3C)c2)s1	–	13.6
O=C1COC2(CCN(S(=O)(=O)C3CC3)CC2)CN1c1cccnc1	–	> 50.1

SMILES	pIC50	IC50 [µM]
Cc1cccc(NC(=O)C2CC(=O)n3cnnc3S2)c1 (stereo not given)	4.363	> 50.1
c1ccc(CNc2ccncc2)nc1	–	> 50.1
COCCNC(=O)Nc1cc(Cl)ccc1OC	–	> 50.1
CC(C)(C)c1cn2c(n1)C(CNCc1cnn3ccccc13)CCC2 (stereo not given)	–	2.52
CCS(=O)(=O)N(CCc1cccs1)CC(=O)NC	–	> 50.1
CN(C)CCCNCCC(Cc1ccccc1)C1CCOC(C)(C)C1.O=C(O)C(=O)O (stereo not given)	5.163	4.6
OC1CCN(c2ccnc(NCCc3ccccc3Cl)n2)C1 (stereo not given)	5.797	2.35
O=C(OCCOc1cccnc1)C1CC1	–	> 50.1
Cc1cncc(C(=O)N2CCCC2C(C)(C)O)c1 (stereo not given)	–	> 50.1
CSC(C)C(=O)N1CCCN(c2cccnn2)CC1 (stereo not given)	–	> 50.1
CN(Cc1cccc(C#N)c1)Cc1ccnc(N)c1	–	> 50.1
CC(=O)N1N=C(c2cccnc2)CC1c1ccco1 (stereo not given)	–	> 50.1
CC(=O)NCc1cccc(OCc2ccccn2)c1	–	> 50.1
CC1(C)CC(n2cccn2)C(C)(C)O1 (stereo not given)	–	> 50.1
CCN(CCO)Cc1ccc(Br)c2cccnc12	5.613	2.26
COCC(=O)NCc1nn(CCN2CCCC2)c(=O)c2ccccc12	–	26.7
O=C(c1ccc(COc2ccccc2Cl)o1)N1N=CCC1(O)C(F)(F)F (stereo not given)	5.104	6.07
Cn1cc(CN2CCn3cc(Cn4cccn4)nc3C2)cn1	–	> 50.1
Cc1nc(N2CCN(C(=O)c3ccco3)CC2)c2c(n1)c(C)nn2C	4.358	> 50.1
NC1CCN(C(=O)C2(c3cccc(F)c3)CC2)CC1	–	> 50.1
Fc1cnc(N2CCO[C@H]3CN(CC4CCCCC4)C[C@H]32)nc1	–	> 50.1
CCc1nnc(Nc2cc(C)nc(C3CN(C(=O)C(C)C)CCO3)c2)s1 (stereo not given)	–	> 50.1
O=C(c1ccc(-c2ccc(O)nc2)s1)N1CCCCCC1	–	> 50.1
CN(C)C(=O)CNC(CO)c1ccc(Cl)c(F)c1 (stereo not given)	–	> 50.1
Nc1c[nH]nc1-c1ccccn1	–	> 50.1
CCNC(=O)CN1CCCC(c2nccn2CC)C1 (stereo not given)	–	> 50.1

From ChEMBL document CHEMBL3988442, “University of Dundee, Small-Polar-MMV Screening Library” (2021)
